Test results taken from publication PMC7437907, “Impact of pH and protein hydrophobicity on norovirus inactivation by heat-denatured lysozyme” (PLoS ONE, 2020).

Tests used:
[1] = test system: MNV-1; test: MNV-1 inactivation by heat-denatured Lzm peptides (plaque assay); type: cell-based, murine norovirus strain 1; conditions: peptides at same molar concentration as 1.0% (w/v) lysozyme, or DL 1% pH 3.7; heat-denatured 100°C 40 min; MNV-1 approx. 6 log PFU/mL, 60 min, room temperature; mean, n = 3
Description: The infectivity of MNV-1 was determined by a plaque assay, as described previously. Briefly, RAW264.7 cells were seeded into 6-well plates (Falcon BD, Franklin Lakes, NJ) at approximately 6 log cells/mL in DMEM containing 5% (v/v) FBS, penicillin (100 U/mL), and streptomycin (100 μg/mL). The plates were incubated at 37°C under 5% CO2 for 18 h. Then, 500 μL/well of samples prepared as described below sections were added to the plates, and the plates were shaken at 20 r/min for 1 h. The inoculated sample was removed, and the wells overlaid with 2 mL of 1.5% (v/v) SeaPlaque agarose (Lonza Japan, Tokyo, Japan) in DMEM containing 5% (v/v) FBS. The plates were incubated at 37°C under 5% CO2 for 48 h. Then, 2 mL of 0.03% (v/v) neutral red solution (Sigma-Aldrich Japan, Tokyo, Japan) was added, and the plates incubated at 37°C under 5% CO2 for 1 h. Thus, visualized plaques were then counted. The synthesized peptides were dissolved in distilled water to the same molarity as 2.0% (w/v) lysozyme, 14,307 of molecular weight, and heated in an oil bath at 100°C for 40 min, then immediately cooled in ice. Next, 120 μL of MNV-1 solution at 6 log pfu/mL was mixed with 120 μL of the prepared heat-denatured peptides, and allowed to stand for 60 min at room temperature. The samples were immediately diluted 10-fold in DMEM and analyzed by the plaque assay, as described above.

[2] = test system: MNV-1; test: Plaque assay for MNV-1 infectivity after exposure to DL preparations at different pH; type: cell-based, murine norovirus strain 1
Description: The infectivity of MNV-1 was determined by a plaque assay, as described previously [9]. Briefly, RAW264.7 cells were seeded into 6-well plates (Falcon BD, Franklin Lakes, NJ) at approximately 6 log cells/mL in DMEM containing 5% (v/v) FBS, penicillin (100 U/mL), and streptomycin (100 μg/mL). The plates were incubated at 37°C under 5% CO2 for 18 h. Then, 500 μL/well of samples prepared as described below sections were added to the plates, and the plates were shaken at 20 r/min for 1 h. The inoculated sample was removed, and the wells overlaid with 2 mL of 1.5% (v/v) SeaPlaque agarose (Lonza Japan, Tokyo, Japan) in DMEM containing 5% (v/v) FBS. The plates were incubated at 37°C under 5% CO2 for 48 h. Then, 2 mL of 0.03% (v/v) neutral red solution (Sigma-Aldrich Japan, Tokyo, Japan) was added, and the plates incubated at 37°C under 5% CO2 for 1 h. Thus, visualized plaques were then counted. […] The samples were then diluted 10-fold in DMEM to stop the virus inactivation reaction and analyzed by the plaque assay, as described above.

[3] = Surface hydrophobicity, protein stability and aggregation assay kit (PSA200K); type: physicochemical; conditions: 1% lysozyme solution, pH 4.5–8.5, DL denatured 100°C 40 min, 1X PSA solution, λEx 550 nm, λEm 610 nm, compared with native lysozyme at same pH, p < 0.01, n = 3
Description: Hydrophobicity, thiol group content, and circular dichroism (CD) spectra of the different DL preparations were analyzed. Hydrophobicity was measured by using protein stability and aggregation assay kit (PSA200K, Profoldin, Hudson, MA), according to the manufacturer’s instructions. Sample excitation was measured at 550 nm and emission at 610 nm, using a spectrofluorometer (SH-9000, Corona Electric Co., Ltd., Ibaraki, Japan). Thiol group content was determined in a reaction mixture containing 192 μL of deionized water, 20 mM Tris-HCl at pH 8.0, 2.8 μL of Ellman’s reagent [prepared by dissolving 4 mg of 5,5′-dithiobis-(2-nitrobenzoic acid) powder in 1 mL of Tris buffer at pH 7.0], and 200 μL of 1.0% (w/v) DL. After incubation at room temperature for 1 h in the dark, sample absorbance was measured at 412 nm by using a microplate reader (SH-1000 Lab, Corona Electric Co., Ltd.). CD spectra were acquired using a circular dichroism dispersometer (J-720, JASCO Corporation, Tokyo, Japan). For the analysis, DL preparation was diluted to 100 μg/mL in distilled water, and the spectra acquired in the range of 190 to 250 nm, with a scanning speed of 100 nm/min, a bandwidth of 1 nm, and integration frequency of 10.

[4] = test system: MNV-1; conditions: after exposure to DL for 1 h; cited from earlier work
Text: We have reported that thermally denatured lysozyme (DL) inactivates norovirus. […] Furthermore, DL inactivates norovirus in several foods and is also effective against the hepatitis A virus. However, the conditions for optimal DL norovirus-inactivating effects and the underlying mechanism remain unclear.

[5] = test system: interferon β (Ifnb) gene; test: Gene expression (qPCR) of RAW264.7 macrophages infected with DL-treated MNV-1: Ifnb; type: cell-based; conditions: MNV-1 exposed to 1.0% DL (pH 6.5 before denaturation) for 60 min, MOI 0.01, 24 h, fold-change vs mock by ΔΔCt, n = 3
Description: (§1) RAW264.7 cell monolayers (1 × 10^7 cells/mL) in T25 cell flasks (Thermo Fisher Scientific K. K., Tokyo, Japan) were inoculated as described below.
(§2) Live MNV-1 (6 log PFU/mL) was used at a multiplicity of infection (MOI) of 0.01. For some experiments, MNV-1 (6 log PFU/mL) was inactivated by heating at 100°C for 40 min in an oil bath. The heat-treated MNV-1 was then used at MOI of 0.01 (infectivity as determined before heat inactivation). For another set of experiments, 100 μL of MNV-1 (6 log PFU/mL) was mixed with 100 μL of 2.0% of DL (adjusted at pH 6.5 before thermally-denaturation) and allowed to stand at room temperature for 60 min. The mixture was used at MOI of 0.01 (infectivity as before DL treatment).
(§3) The inoculated RAW264.7 cell monolayers were incubated at 37°C under 5% CO2 for 24 h. The cells were then detached by using a cell scraper (Thermo Fisher Scientific) and centrifuged at 300 × g for 5 min. […]
(§4) Total RNA was extracted from inoculated RAW264.7 macrophages using the RNeasy Mini kit (Qiagen, Hilden, Germany), according to the manufacturer’s instructions. […] The resulting cDNA was amplified by quantitative polymerase chain reaction (qPCR) to quantitate the expression levels of interferon β (Ifnb) and interleukin 6 (Il6) genes. […] Fold-changes in mRNA abundance were calculated by the ΔΔCt method, as previously described.

[6] = test system: interleukin 6 (Il6) gene; test: Gene expression (qPCR) of RAW264.7 macrophages infected with DL-treated MNV-1: Il6; type: cell-based; conditions: MNV-1 exposed to 1.0% DL (pH 6.5 before denaturation) for 60 min, MOI 0.01, 24 h, fold-change vs mock by ΔΔCt, n = 3
Description: as §1, §2, §3, §4

[7] = stated in discussion, no reference given; cited from earlier work
Text: Lysozyme is a positively charged protein with an isoelectric point of 11. We anticipated that in a high-pH solution (pH 6.5–8.5), the intermolecular forces would become stronger, thus, denaturing the protein structure upon heating. In other words, adjusting the pH to a high value would trigger the loosening of the protein structure during thermal denaturation. […] Of ...

Substance	Decrease in MNV-1 infectivity (log reduction) [1]	other results
RCELAAAMKRHGLDNYRGYSLGNNVCAAKNESNNN [Lzm R2, variant of Lzm 5–39, aromatic amino acids replaced to reduce hydrophobicity]	lost	
RCELAAAMKREGLDNYRGYSLGNWVCAAEFESNFN [Lzm R1, variant of Lzm 5–39, basic amino acids replaced with acidic amino acids]	lost	
DL: thermally denatured egg white lysozyme, prepared at pH 3.7–8.5	0.9 log PFU/mL	Infectivity of MNV-1 after exposure, trend with pH ([2]; 0.1% and 0.5% DL final, preparations at different pH, exposure 60 min, n = 3): tended to decrease as the pH of DL preparations increased; Infectivity of MNV-1 after exposure, versus control ([2]; 1.0% DL final, DL preparations at pH 4.5–8.5, exposure 1 min, control distilled water, Dunnett's test p < 0.01, n = 3): significantly lower than that of the control; Surface hydrophobicity (fluorescence intensity) [3]: significantly higher than that of native lysozyme at any pH; Average expansion of MNV-1 particle size [4]: 16.37 nm; Expression of the Ifnb gene [5]: did not increase; Expression of the Il6 gene [6]: did not increase
ITASVNCAKKIVSDGNGMNAWVAWRNRCKGTDVQAWIR [Lzm 88–125, synthetic peptide containing lysozyme residues 88–125]	0.2 log PFU/mL	
KVFGRCELAAAMKRHGLDNYRGYSLGNWVCAAKFE [Lzm 1–35, synthetic peptide containing lysozyme residues 1–35]	1.7 log PFU/mL	
RCELAAAMKRHGLDNYRGYSLGNWVCAAKFESNFN [Lzm 5–39, synthetic peptide of lysozyme residues 5–39]	1.7 log PFU/mL	
Lysozyme: egg white lysozyme, single-chain polypeptide consisting of 129 amino acids		Isoelectric point [7]: 11
RCNLAAAMKRHGLNNYRGYSLGNWVCAAKFNSNFN [Lzm R3, variant of Lzm 5–39, all acidic amino acids replaced with uncharged amino acids]	2.0 log PFU/mL	
